In patent US10563263B2, “Genetic polymorphisms associated with statin response and cardiovascular diseases, methods of detection and uses thereof” (CELERA CORPORATION, priority 2010, dated 2020):

Tested on: CHD
Experiment: Meta-analysis of CARE and WOSCOPS combined, synergy index, CHD endpoint
Assay type: in vivo, human
Excerpt: Tables 4-5 provide meta-analyses of CARE and WOSCOPS combined (2nd section of each table) for two endpoints (CHD and CVD) and three genetic models (dominant, recessive, and additive), as well as logistic regression analyses of CARE (3rd section of each table) and WOSCOPS (4th section of each table) individually.
Tables 12 and 17 provide results of meta-analysis of the CARE and WOSCOPS sample sets combined by direct genotyping and by imputing genotypes.
“P” indicates the p-value, and “P(R)” (or “P.R.”) indicates the p-value random effect. Both of these are p-values corresponding to a statistical test of whether the combined synergy index is equal to one but use different assumptions to derive the p-value. “P” is calculated using a fixed effects model, and “P(R)” is calculated using a random effects model.
“OR” indicates the odds ratio (synergy index) calculated from a fixed effects model, and “OR(R)” (or “OR.R.”) indicates the odds ratio (synergy index) calculated from a random effects model.

[1] = SNP rs1321432, allele (A1) A, RECESSIVE, Imputed
[2] = SNP rs1321457, allele (A1) G, RECESSIVE, Imputed
[3] = SNP rs1336382, allele (A1) T, DOMINANT, Imputed
[4] = SNP rs1336383, allele (A1) T, DOMINANT, Imputed
[5] = SNP rs1336407, allele (A1) T, DOMINANT, Imputed
[6] = SNP rs1336409, allele (A1) T, DOMINANT, Imputed
[7] = SNP rs1336596, allele (A1) A, DOMINANT, Imputed
[8] = SNP rs1343560, allele (A1) T, ADDITIVE, Imputed
[9] = SNP rs1343560, allele (A1) T, DOMINANT, Imputed
[10] = SNP rs1361987, allele (A1) T, GENOTYPIC, Imputed
[11] = SNP rs12923993, allele (A1) C, DOMINANT, Imputed
[12] = SNP rs12936964, allele (A1) T, DOMINANT, Imputed
[13] = SNP rs12960663, allele (A1) G, ADDITIVE, Imputed
[14] = SNP rs13038146, allele (A1) C, ADDITIVE, Imputed
[15] = SNP rs13038146, allele (A1) C, GENOTYPIC, Imputed
[16] = SNP rs13134222, allele (A1) A, GENOTYPIC, Imputed
[17] = SNP rs13172910, allele (A1) A, DOMINANT, Imputed
[18] = SNP rs13194907, allele (A1) A, ADDITIVE, Imputed
[19] = SNP rs13194907, allele (A1) A, DOMINANT, Imputed
[20] = SNP rs13195745, allele (A1) A, ADDITIVE, Imputed
[21] = SNP rs13195745, allele (A1) A, DOMINANT, Imputed
[22] = SNP rs13265054, allele (A1) T, DOMINANT, Imputed
[23] = SNP rs13282131, allele (A1) C, GENOTYPIC, Imputed
[24] = SNP rs13353526, allele (A1) C, DOMINANT, Imputed
[25] = rs1003148 allele C RECESSIVE Imputed
[26] = rs1008705 allele C DOMINANT Imputed
[27] = rs1149350 allele A DOMINANT Imputed
[28] = rs1150143 allele G DOMINANT Imputed
[29] = rs1204522 allele C GENOTYPIC Imputed
[30] = rs1204524 allele A GENOTYPIC Imputed
[31] = rs1232298 allele G RECESSIVE Imputed
[32] = rs1247340 allele C DOMINANT Imputed
[33] = rs1247341 allele C DOMINANT Imputed
[34] = rs10046799 allele C ADDITIVE Imputed
[35] = rs10046799 allele C GENOTYPIC Imputed
[36] = rs10051148 allele C DOMINANT Imputed
[37] = rs10054055 allele T DOMINANT Imputed

SMILES: CC[C@H](C)C(=O)O[C@H]1C[C@H](O)C=C2C=C[C@H](C)[C@H](CC[C@@H](O)C[C@@H](O)CC(=O)O)[C@H]21 [Pravastatin, pravastatin]
- OR [1]: 2.1221
- OR(R) [1]: 2.1221
- OR [2]: 2.0656
- OR(R) [2]: 2.0656
- OR [3]: 1.6135
- OR(R) [3]: 1.6135
- OR [4]: 1.6135
- OR(R) [4]: 1.6135
- OR [5]: 1.6135
- OR(R) [5]: 1.6135
- OR [6]: 1.6085
- OR(R) [6]: 1.6059
- OR [7]: 0.5951
- OR(R) [7]: 0.5951
- OR [8]: 0.5393
- OR(R) [8]: 0.5393
- OR [9]: 0.5034
- OR(R) [9]: 0.5034
- OR [10]: 0.4404
- OR(R) [10]: 0.4404
- OR [11]: 1.4572
- OR(R) [11]: 1.4572
- OR [12]: 1.6688
- OR(R) [12]: 1.6688
- OR [13]: 0.6241
- OR(R) [13]: 0.6241
- OR [14]: 1.3708
- OR(R) [14]: 1.3708
- OR [15]: 1.9308
- OR(R) [15]: 1.9308
- OR [16]: 0.3011
- OR(R) [16]: 0.3011
- OR [17]: 0.6547
- OR(R) [17]: 0.6547
- OR [18]: 2.303
- OR(R) [18]: 2.303
- OR [19]: 2.505
- OR(R) [19]: 2.505
- OR [20]: 2.303
- OR(R) [20]: 2.303
- OR [21]: 2.505
- OR(R) [21]: 2.505
- OR [22]: 0.6144
- OR(R) [22]: 0.6144
- OR [23]: 1.8412
- OR(R) [23]: 1.8412
- OR [24]: 1.9371
- OR(R) [24]: 1.9371
- Meta-analysis OR (rs1948 allele A vs G (ref)): 1.66
- Meta-analysis OR (rs151806 allele G vs A (ref)): 0.63
- Meta-analysis OR (rs205279 allele A vs G (ref)): 1.81
- Meta-analysis OR (rs238272 allele A vs G (ref)): 1.45
- Meta-analysis OR (rs312929 allele G vs A (ref)): 0.75
- Meta-analysis OR (rs316720 allele G vs A (ref)): 0.71
- Meta-analysis OR (rs331555 allele A vs C (ref)): 0.74
- Meta-analysis OR (rs354342 allele A vs G (ref)): 0.67
- Meta-analysis OR (rs453625, allele A1 A (non-ref), A2 G (ref), endpoint/model not given): 0.62
- Meta-analysis OR (rs610118 allele G vs A (ref)): 0.49
- Meta-analysis OR (rs669684 allele G vs A (ref)): 0.72
- Meta-analysis OR (rs842796 allele A vs G (ref)): 1.59
- Meta-analysis OR (rs886469 allele G vs A (ref)): 0.64
- Meta-analysis OR (rs969356 allele G vs A (ref)): 0.63
- OR [25]: 0.5819
- OR(R) [25]: 0.5829
- OR [26]: 1.4761
- OR(R) [26]: 1.4761
- Meta-analysis OR (rs1035618 allele A vs C (ref)): 1.42
- Meta-analysis OR (rs1076733, allele A1 A (non-ref), A2 G (ref), endpoint/model not given): 0.67
- OR [27]: 1.6713
- OR(R) [27]: 1.6713
- OR [28]: 1.6852
- OR(R) [28]: 1.6852
- Meta-analysis OR (rs1182878, allele A1 A (non-ref), A2 G (ref), endpoint/model not given): 0.78
- OR [29]: 0.4353
- OR(R) [29]: 0.4353
- OR [30]: 0.4351
- OR(R) [30]: 0.4351
- OR [31]: 2.0566
- OR(R) [31]: 2.0955
- OR [32]: 1.6742
- OR(R) [32]: 1.6742
- OR [33]: 1.684
- OR(R) [33]: 1.684
- Meta-analysis OR (rs1343563 allele C vs A (ref)): 0.60
- Meta-analysis OR (rs1349282 allele A vs G (ref)): 0.55
- Meta-analysis OR (rs1382787 allele G vs A (ref)): 1.35
- Meta-analysis OR (rs1474396, allele A1 A (non-ref), A2 C (ref), endpoint/model not given): 1.46
- Meta-analysis OR (rs1615197 allele G vs A (ref)): 1.80
- Meta-analysis OR (rs1884897 allele A vs G (ref)): 2.07
- Meta-analysis OR (rs2008165 allele G vs A (ref)): 0.59
- Meta-analysis OR (rs2023650 allele A vs G (ref)): 0.71
- Meta-analysis OR (rs2060411 allele A vs G (ref)): 1.39
- Meta-analysis OR (rs2104506 allele A vs C (ref)): 0.71
- Meta-analysis OR (rs2129571, allele A1 A (non-ref), A2 G (ref), endpoint/model not given): 0.53
- Meta-analysis OR (rs2145540 allele A vs G (ref)): 0.56
- Meta-analysis OR (rs2268650 allele A vs G (ref)): 0.66
- Meta-analysis OR (rs2273816 allele A vs G (ref)): 1.61
- Meta-analysis OR (rs2290193, allele A1 C (non-ref), A2 A (ref), endpoint/model not given): 0.47
- Meta-analysis OR (rs2376764 allele A vs G (ref)): 0.56
- Meta-analysis OR (rs2418412 allele G vs A (ref)): 1.94
- Meta-analysis OR (rs2483641, allele A1 A (non-ref), A2 G (ref), endpoint/model not given): 0.59
- Meta-analysis OR (rs2534752 allele G vs A (ref)): 1.65
- Meta-analysis OR (rs2626130 allele G vs A (ref)): 1.32
- Meta-analysis OR (rs2695026 allele A vs G (ref)): 0.67
- Meta-analysis OR (rs2793086 allele C vs A (ref)): 0.65
- Meta-analysis OR (rs2941528 allele A vs G (ref)): 0.67
- Meta-analysis OR (rs3000490 allele G vs A (ref)): 1.38
- Meta-analysis OR (rs3213616 allele A vs G (ref)): 0.62
- Meta-analysis OR (rs3732788 allele G vs A (ref)): 0.51
- Meta-analysis OR (rs3798544 allele A vs G (ref)): 1.57
- Meta-analysis OR (rs3998860 allele A vs G (ref)): 0.61
- Meta-analysis OR (rs4289236 allele A vs G (ref)): 1.41
- Meta-analysis OR (rs4611134 allele A vs G (ref)): 1.55
- Meta-analysis OR (rs4643388 allele G vs A (ref)): 1.34
- Meta-analysis OR (rs4682522 allele C vs A (ref)): 0.55
- Meta-analysis OR (rs4830819 allele G vs A (ref)): 0.60
- Meta-analysis OR (rs4869033 allele G vs A (ref)): 0.36
- Meta-analysis OR (rs4924215 allele A vs G (ref)): 1.65
- Meta-analysis OR (rs4986146 allele A vs G (ref)): 0.63
- Meta-analysis OR (rs4993917 allele A vs C (ref)): 0.60
- Meta-analysis OR (rs5017584 allele A vs G (ref)): 1.74
- Meta-analysis OR (rs6075209 allele A vs G (ref)): 0.64
- Meta-analysis OR (rs6080603 allele A vs C (ref)): 0.62
- Meta-analysis OR (rs6491586 allele G vs A (ref)): 1.65
- Meta-analysis OR (rs6505669 allele G vs A (ref)): 1.58
- Meta-analysis OR (rs6911817, allele A1 A (non-ref), A2 G (ref), endpoint/model not given): 2.85
- Meta-analysis OR (rs7094941, allele A1 G (non-ref), A2 A (ref), endpoint/model not given): 0.74
- Meta-analysis OR (rs7179134 allele A vs G (ref)): 3.52
- Meta-analysis OR (rs7193741 allele A vs C (ref)): 2.04
- Meta-analysis OR (rs7327364 allele A vs G (ref)): 0.68
- Meta-analysis OR (rs7497613, allele A1 A (non-ref), A2 G (ref), endpoint/model not given): 0.55
- Meta-analysis OR (rs7616936, allele A1 C (non-ref), A2 A (ref), endpoint/model not given): 1.77
- Meta-analysis OR (rs7705993 allele G vs A (ref)): 1.48
- Meta-analysis OR (rs7767024, allele A1 A (non-ref), A2 G (ref), endpoint/model not given): 1.42
- Meta-analysis OR (rs7910196, allele A1 G (non-ref), A2 A (ref), endpoint/model not given): 1.47
- Meta-analysis OR (rs8051893 allele A vs G (ref)): 0.67
- Meta-analysis OR (rs8109631 allele A vs G (ref)): 1.53
- Meta-analysis OR (rs9375683 allele G vs A (ref)): 1.49
- Meta-analysis OR (rs9436636 allele A vs G (ref)): 1.35
- Meta-analysis OR (rs9446187 allele A vs G (ref)): 1.96
- Meta-analysis OR (rs9658127, allele A1 A (non-ref), A2 G (ref), endpoint/model not given): 2.79
- OR [34]: 0.724
- OR(R) [34]: 0.7134
- OR [35]: 0.5342
- OR(R) [35]: 0.5221
- OR [36]: 0.5783
- OR(R) [36]: 0.5783
- OR [37]: 0.5791
- OR(R) [37]: 0.5791
- OR (rs10067895 allele A DOMINANT Imputed): 0.5759
